Reference: patent US20130040882A1, “USE OF FIBROBLAST GROWTH FACTOR FRAGMENTS” (NOVARTIS AG, priority 2003, published 2013)
Several values for one entry are separate records, joined by “and”; a condition that tells them apart may be missing. Equal entries are not always repeated.

What was measured:
[1] = Salmon calcitonin/PTS893 monkey study: haematology; assay type: in vivo, cynomolgus monkeys (Macaca fascicularis);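 note: haematology parameters were measured in blood collected from a peripheral vein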
Procedure: Animals were fasted overnight before blood collection but had free access to water. Blood samples were taken from a peripheral vein. Standard haematology and clinical chemistry analysis were performed once during pretest and at the end of the treatment period. Blood samples were collected from each animal at the same intervals as described for the clinical chemistry investigations. The serum samples were deep-frozen (approximately −80° C.) until analyses for hormone determination.

[2] = Salmon calcitonin/PTS893 monkey study: histopathology incl. osteonectin, osteopontin and osteocalcin staining of bone; assay type: in vivo, cynomolgus monkeys (Macaca fascicularis); conditions: females
Procedure: Animals were killed by deep anaesthesia induced by intravenous injection of Pentothal®, followed by exsanguinations. All relevant tissues were sampled for histopathology and gene expression profiling. The following tissue samples were processed for analysis: liver, kidney, pituitary, muscle, bone, duodenum, spleen and trachea. Samples for histopathology were fixed in phosphate-buffered 10% formalin. Bone demineralization was performed with 10% formic acid. Tissue samples were embedded in Paraplast® and sectioned at 4 microns, for staining with haematoxylin and eosin. […] All selected tissues for gene expression profiling were examined histopathologically.
Bone sections were stained for osteonectin, osteopontin and osteocalcin and were evaluated histopathologically. Histomorphometry of the bone tissue was performed regarding parameters for bone resorption and synthesis (osteoid formation).

[3] = Salmon calcitonin/PTS893 monkey study: in vivo examinations (mortality, food consumption, clinical observations, body weight); design: species or system cynomolgus monkeys (Macaca fascicularis)
Procedure: Solvent was used as vehicle for the control group.
The animals used in this analysis were cynomolgus monkeys (Macaca fascicularis), supplied by Centre de Recherches Primatologiques, Port Louis, Mauritius. Two animals were used per group and sex. […] Animals were examined daily for mortality, food consumption and clinical observations. Body weight was recorded once per week.
In vivo examinations. No significant histopathological changes were observed.

[4] = Salmon calcitonin/PTS893 monkey study: urinalysis; conditions: urine
[5] = female monkeys, day 13 of dosing
[6] = female monkeys, day −8 relative to start of dosing
[7] = male monkeys, day −6 relative to start of dosing

## CC(C)C[C@H](NC(=O)[C@H](CCCCN)NC(=O)CNC(=O)[C@H](CC(C)C)NC(=O)[C@@H](NC(=O)[C@@H]1CSSC[C@H](N)C(=O)N[C@@H](CO)C(=O)N[C@@H](CC(N)=O)C(=O)N[C@@H](CC(C)C)C(=O)N[C@@H](CO)C(=O)N[C@@H]([C@@H](C)O)C(=O)N1)C(C)C)C(=O)N[C@@H](CO)C(=O)N[C@@H](CCC(N)=O)C(=O)N[C@@H](CCC(=O)O)C(=O)N[C@@H](CC(C)C)C(=O)N[C@@H](Cc1c[nH]cn1)C(=O)N[C@@H](CCCCN)C(=O)N[C@@H](CC(C)C)C(=O)N[C@@H](CCC(N)=O)C(=O)N[C@H](C(=O)N[C@@H](Cc1ccc(O)cc1)C(=O)N1CCC[C@H]1C(=O)N[C@@H](CCCNC(=N)N)C(=O)N[C@H](C(=O)N[C@@H](CC(N)=O)C(=O)N[C@H](C(=O)NCC(=O)N[C@@H](CO)C(=O)NCC(=O)N[C@H](C(=O)N1CCC[C@H]1C(N)=O)[C@@H](C)O)[C@@H](C)O)[C@@H](C)O)[C@@H](C)O [salmon calcitonin]
[1]; females, d7
  Haematology L: 4.61 pg/ml and 6.21 pg/ml
  Haematology M: 0.63 nmol/l and 0.82 nmol/l
  Haematology MCH: 18.6 ng/ml and 19.4 ng/ml
  Haematology MCHC: 29.0 pg/ml and 28.7 pg/ml
  Haematology PCV: 0.40 mU/l and 0.44 mU/l
  Haematology PLAT: 594 nmol/l and 356 nmol/l
  Haematology RBC: 6.2 nmol/l and 6.6 nmol/l
[1]; females, d13
  Haematology M: 0.69 nmol/l and 0.39 nmol/l
  Haematology MCH: 19.5 ng/ml
  Haematology MCHC: 30.3 pg/ml and 29.9 pg/ml
  Haematology N: 5.41 nmol/l and 6.16 nmol/l
  Haematology PCV: 0.33 mU/l and 0.37 mU/l
  Haematology PLAT: 451 nmol/l and 229 nmol/l
  Haematology RBC: 5.2 nmol/l and 5.7 nmol/l
[1]; females, d−8 (before dosing)
  Haematology E: 0.03 mUI/l
  Haematology L: 3.26 pg/ml and 4.79 pg/ml
  Haematology M: 0.25 nmol/l and 0.30 nmol/l
  Haematology MCH: 19.1 ng/ml and 19.8 ng/ml
  Haematology MCHC: 31.2 pg/ml and 30.6 pg/ml
  Haematology N: 3.45 nmol/l and 3.13 nmol/l
  Haematology PCV: 0.40 mU/l and 0.45 mU/l
  Haematology PLAT: 549 nmol/l and 304 nmol/l
  Haematology RBC: 6.5 nmol/l and 7.0 nmol/l
[1]; males, d7
  Haematology B: 0.04 G/l
  Haematology E: 0.10 G/l and 0.09 G/l
  Haematology HB: 11.7 g/dl and 11.5 g/dl
  Haematology L: 6.79 G/l and 5.57 G/l
  Haematology M: 0.73 G/l and 0.45 G/l
  Haematology MCH: 19.9 pg and 19.2 pg
  Haematology MCHC: 30.3 g/dl and 31.3 g/dl
  Haematology MCV: 66 fl and 62 fl
  Haematology N: 4.11 G/l and 3.31 G/l
  Haematology PCV: 0.39 l/l and 0.37 l/l
  Haematology PLAT: 396 G/l and 330 G/l
  Haematology RBC: 5.9 T/l and 6.0 T/l
  Haematology WBC: 11.8 G/l and 9.5 G/l
[1]; males, d13
  Haematology B: 0.03 G/l
  Haematology HB: 11.2 g/dl and 10.3 g/dl
  Haematology L: 5.38 G/l and 4.92 G/l
  Haematology M: 0.57 G/l and 0.76 G/l
  Haematology MCH: 20.2 pg and 19.2 pg
  Haematology MCHC: 29.0 g/dl and 28.7 g/dl
  Haematology MCV: 70 fl and 67 fl
  Haematology N: 1.90 G/l and 3.04 G/l
  Haematology PCV: 0.39 l/l and 0.36 l/l
  Haematology PLAT: 302 G/l and 389 G/l
  Haematology RBC: 5.6 T/l and 5.4 T/l
  Haematology WBC: 8.0 G/l and 8.8 G/l
[1]; males, d−6 (before dosing)
  Haematology HB: 12.6 g/dl and 13.6 g/dl
  Haematology L: 4.00 G/l and 6.55 G/l
  Haematology MCH: 20.2 pg and 19.7 pg
  Haematology MCHC: 31.4 g/dl and 32.0 g/dl
  Haematology MCV: 64 fl and 62 fl
  Haematology N: 3.36 G/l and 3.93 G/l
  Haematology PCV: 0.40 l/l and 0.43 l/l
  Haematology PLAT: 351 G/l and 247 G/l
  Haematology RBC: 6.3 T/l and 6.9 T/l
  Haematology WBC: 7.7 G/l and 11.5 G/l
[2]
  Inflammatory and regenerative changes in the kidneys: slightly higher incidence
[3]; 50 μg/animal/day sc, two weeks
  Food consumption: decrease
  Signs of toxicity: no signs of toxicity
[3]; males, average of both animals of the group
  Food Consumption, Avg., Both animals: 72.9
[3]; males, average per individual animal
  Food Consumption, Avg.: 70.8 and 75.0
[3]; males, day 1 of SC dosing, individual animals
  Food Consumption, Day 1: 75 and 50
[3]; males, day 2 of SC dosing, individual animals
  Food Consumption, Day 2: 25
[3]; males, day 3 of SC dosing, individual animals
  Food Consumption, Day 3: 50 and 100
[3]; males, day 4 of SC dosing, individual animals
  Food Consumption, Day 4: 100 and 75
[3]; males, day 5 of SC dosing, individual animals
  Food Consumption, Day 5: 100
[3]; males, day 6 of SC dosing, individual animals
  Food Consumption, Day 6: 75
[3]; males, day 7 of SC dosing, individual animals
  Food Consumption, Day 7: 100 and 75
[3]; males, day 8 of SC dosing, individual animals
  Food Consumption, Day 8: 100 and 75
[3]; males, day 9 of SC dosing, individual animals
  Food Consumption, Day 9: 100
[3]; males, day 10 of SC dosing, individual animals
  Food Consumption, Day 10: 100
[3]; males, day 11 of SC dosing, individual animals
  Food Consumption, Day 11: 75 and 100
[3]; males, day 12 of SC dosing, individual animals
  Food Consumption, Day 12: 75
[3]; males, day 13 of SC dosing, individual animals
  Food Consumption, Day 13: 25
[3]; males, day 14 of SC dosing, individual animals
  Food Consumption, Day 14: 75
[3]; males, day −1 (before dosing), individual animals
  Food Consumption, Day −1: 75
[3]; males, day −2 (before dosing), individual animals
  Food Consumption, Day −2: 100
[3]; males, day −3 (before dosing), individual animals
  Food Consumption, Day −3: 75
[3]; males, day −4 (before dosing), individual animals
  Food Consumption, Day −4: 50 and 75
[3]; males, day −5 (before dosing), individual animals
  Food Consumption, Day −5: 75
[3]; males, day −6 (before dosing), individual animals
  Food Consumption, Day −6: 50
[4]; [5]
  CREAT: 4800 µmol/L and 4200 µmol/L
  Ca2+: 17.55 mmol/L and 12.70 mmol/L
  Cl−: 63 mmol/L and 65 mmol/L
  I.PHOS: 5.1 mmol/L and 5.8 mmol/L
  K+: 53 mmol/L and 57 mmol/L
  Mg2+: 5.40 mmol/L and 4.85 mmol/L
  NAG: 2.8 IU/l and 2.7 IU/l
  Na+: 40 mmol/L and 32 mmol/L
  VOLUME: 67 mL and 49 mL
[4]; female monkeys, day −7 relative to start of dosing
  CREAT: 6920 µmol/L and 13380 µmol/L
[4]; [6]
  CREAT: 10780 µmol/L and 11260 µmol/L
  Ca2+: 3.00 mmol/L and 3.50 mmol/L
  K+: 104 mmol/L and 172 mmol/L
  Mg2+: 3.35 mmol/L and 3.80 mmol/L
  Na+: 98 mmol/L and 156 mmol/L
[4]; male monkeys, day 13 of dosing
  CREAT: 4620 µmol/L and 4400 µmol/L
  Ca2+: 18.25 mmol/L and 23.40 mmol/L
  Cl−: 55 mmol/L and 68 mmol/L
  I.PHOS: 2.50 mmol/L and 3.00 mmol/L
  K+: 78 mmol/L and 76 mmol/L
  Mg2+: 7.05 mmol/L and 9.80 mmol/L
  Na+: 14 mmol/L and 15 mmol/L
  VOLUME: 68 mL and 54 mL
[4]; [7]
  I.PHOS: 4.35 mmol/L and 5.33 mmol/L
  LDH: 9.0 IU/L and 13.0 IU/L
  NAG: 2.7 IU/l and 4.2 IU/l
  VOLUME: 62 mL and 37 mL
